Patent US20140323346A1, “BINDING AGENT” (Garvan Institute of Medical Research, priority 2011, published 2014)

Key:
[1] = test system: protein kinases in MDA-MB-231 breast cancer cell lysates; test: Affinity purification of kinases from MDA-MB-231 cell lysates on inhibitor resins, bound proteins identified by LC-MS/MS; assay type: binding, Homo sapiens; settings: MDA-MB-231 lysate
Procedure: MDA-MB-231 cells were cultured in RPMI1640 (Invitrogen) supplemented with 10% fetal bovine serum (Invitrogen) and insulin at 0.25 IU/ml. Subconfluent cells were lysed with ice-cold lysis buffer containing 50 mM HEPES-NaOH (pH 7.5), 150 mM NaCl, 0.5% Triton X-100, 1 mM EDTA 1 mM EGTA supplemented with additives (10 μg/ml aprotinin, 10 μg/ml leupeptin, 1 mM PMSF, 10 mM NaF, 50 ng/ml calyculin A, 1% phosphatase inhibitor mixture 3 (Sigma), and 2.5 mM Na3VO4) for 5 min on ice. Cell debris was removed by centrifugation at 16,500 g at 4° C. for 30 min and the supernatant was subsequently filtered through a 0.45 μm PVDF membrane (Millipore). Protein concentrations were measured by the Bradford assay (Bio-Rad).
Kinase inhibitors Purvalanol B (Tocris) and SU6668 (Biochempartner Chemical) were immobilized to EAH-sepharose 4B (GE Healthcare) and VI16832 (Evotec) was coupled to ECH-sepharose 4B (GE Healthcare) beads via a carbodiimide-mediated reaction. Briefly, 1 ml of beads were washed 3 times with 10 ml of 0.5 M NaCl, twice with 10 ml H2O and once with coupling buffer made of 50% dimethylformamide (DMF) and 50% ethanol. The washed and aspirated beads were then mixed with 1 ml of inhibitor solution (Purvalanol B at 10 mM, SU6668 at 10 mM and VI16832 at 3 mM dissolved in coupling buffer), followed by dropwise addition of 150 μl of 1 M N-(3-dimethylaminopropyl)-N-ethylcarbodiimide hydrochloride (EDC) in coupling buffer.
The coupling reaction was carried out in the dark at room temperature overnight on a rotating wheel. To block the remaining reactive groups, the resin was washed twice with 2 ml of coupling buffer followed by addition of 1 ml of DMF/ethanol/ethanolamine at ratio 1:1:1 (pH 8). The reaction was initiated by dropwise addition of 150 μl of 1 M EDC in coupling buffer and the mixture was then incubated again in the dark at room temperature overnight with gentle agitation. Subsequently the resin was washed 3 times with 10 ml of coupling buffer, twice with 10 ml of 0.5 M NaCl and once with 10 ml of 20% ethanol. The resin was stored in 20% ethanol as a suspension at 4° C. in the dark. For CTx-0294885 immobilization, activated CH Sepharose 4B (GE Healthcare) (0.5 g) was swelled with 20 ml of 1 mM HCl and collected by vacuum filtration. The collected resin was washed 4 times with 20 ml of 1 mM HCl, and mixed with 3 ml of CTx-0294885 (9 mM) dissolved in 50% DMF 50% 100 mM sodium bicarbonate (pH 8). The suspension was agitated on a shaker table for 18 h. The mixture was washed with 5 ml of 50% aqueous DMF and the resin was resuspended in IM ethanolamine in 50% aqueous DMF. The mixture was agitated for 1 h before the resin was collected by filtration and washed 5 times with 5 ml of 50% aqueous DMF, 10 times with 10 ml of 0.1 M acetate buffer (pH 4), 10 times with 10 ml of 0.1 M bicarbonate buffer (pH 8), and 10 times of 10 ml 20% ethanol. The resin was resuspended in 10 ml of 20% ethanol and stored at 4° C. An equally suitable alternative protocol for CTx-0294885 immobilization is described in Example 2.
The salt concentration in the protein lysates was adjusted to 1 M NaCl and the kinase inhibitor resins were washed once with 10 ml of H2O and once with 10 ml of washing buffer A (lysis buffer with 1 M NaCl plus 10 mM NaF and 0.1 mM Na3VO4) prior to kinase enrichment. For testing of single kinase inhibitors, 1 ml of inhibitor resin was incubated with 50 mg of protein lysates, and for multi-inhibitor resins, a cocktail comprising 1 ml of each inhibitor resin was used for incubation with 100 mg of protein lysates. After 2 h of incubation at 4° C. in the dark on a rotating wheel, the resins were washed twice with 10 ml of washing buffer A, once with 10 ml of washing buffer B (same as washing buffer A except NaCl concentration is 150 mM instead of 1 M) and once with washing buffer C (50 mM HEPES, 10 mM NaF and 0.1 mM Na3VO4). […]

[2] = test system: protein kinases from three different cell lines; settings: cited from earlier work

| Compound | proteins identified ([1]; CTx-0294885 coupled to CL sepharose 4B beads, single resin) | kinases of the RGC (receptor guanylate cyclase) family identified ([1]; FIG. 2A) | major kinase subgroups with representatives identified ([1]; FIG. 2A) | relative enrichment of kinase families ([1]; FIG. 2B) | kinases bound that are not bound by the other reagents (P, S, V) ([1]; comparison with purvalanol B, SU6668 and VI16832 columns) | enrichment of non-protein kinases ([1]; gene ontology analysis, FIG. 2C) | kinase identifications if phosphosites are included (kinases bound) ([1]; single resin) | kinases identified among the proteins identified ([1]; single resin, phosphosites not included) | protein kinases detected in total [2] |
| --- | --- | --- | --- | --- | --- | --- | --- | --- | --- |
| CNC(=O)c1ccccc1Nc1nc(Nc2ccc(N3CCNCC3)cc2)ncc1Cl [CTx-0294885, 2-((5-Chloro-2-((4-(piperazin-1-yl)phenyl)amino)pyrimidin-4-yl)amino)-N-methylbenzamide] | 2546 | No kinases from the minor RGC (receptor guanylate cyclase) family were identified | 9 | particularly strong enrichment for kinases of the STE, CMGC and AGC subfamilies | 77 | enrichment for other purine nucleotide binding proteins | 240 | 185 |  |
| NCCOc1ccc(Nc2ncc3ccc(=O)n(C4CC5CCC4C5)c3n2)cc1 (stereo not drawn) [VI16832] |  |  |  |  |  |  |  |  | 170 |
